Measurements taken from patent US20180042918A1, “RESPIRATORY INFECTION TREATING AGENT” (KYORIN PHARMACEUTICAL CO., LTD., priority 2015, published 2018).
≈ marks a conversion by molar mass, not a printed value. Marks after values point to notes of the source that are not given here.

Experiments:
[1] = tested on: E. coli ATCC25922; assay: microbe, parasite or virus in culture; format: cell-based; conditions: Escherichia coli
[2] = tested on: S. aureus ATCC29213; assay: Frequency of development of resistant bacteria; format: cell-based, Staphylococcus aureus; conditions: for FREQUENCY OF DEVELOPMENT OF RESISTANT BACTERIA (AVERAGE OF TWO MEASURED VALUES): about 70 hours
Description: (§1) S. aureus ATCC29213 is Staphylococcus aureus, S. pneumoniae ATCC49619 is Streptococcus pneumoniae, and E. coli ATCC25922 is Escherichia coli. […]
(§2) The frequency of development of resistant bacteria was calculated by dividing the number of colonies developed on an agar medium having each drug concentration by the number of initially inoculated bacteria.

[3] = tested on: E. coli ATCC25922; assay: Frequency of development of resistant bacteria; format: cell-based, Escherichia coli; conditions: for FREQUENCY OF DEVELOPMENT OF RESISTANT BACTERIA (AVERAGE OF TWO MEASURED VALUES): about 70 hours
Description: as §1, §2

[4] = tested on: S. pneumoniae ATCC49619; assay: Frequency of development of resistant bacteria; format: cell-based, Streptococcus pneumoniae; conditions: for FREQUENCY OF DEVELOPMENT OF RESISTANT BACTERIA (AVERAGE OF TWO MEASURED VALUES): about 70 hours
Description: as §1, §2

[5] = Concentration in tissue (rat, oral administration), radioactivity; format: in vivo; conditions: SD rat, single oral 10.83 mg/kg; for RADIOACTIVITY CONCENTRATION IN TISSUE, LUNG / RADIOACTIVITY CONCENTRATION IN TISSUE, PLASMA: fasting
Description: The compound C (10.83 mg/kg) (solvent: water) was single orally administrated to a SD rat under fasting. 1, 6, and 24 hours after the administration, the lung tissue and the plasma were collected. The lung tissue was dried and treated by a sample oxidizer system (Sample Oxidizer: Model 307, PerkinElmer Inc., glass vial: 20 mL, Wheaton Industries, carbon dioxide absorbent: Carbo-Sorb 8 mL, PerkinElmer Inc., scintillation cocktail: Permafluor 12 mL, PerkinElmer Inc.), and the radioactivity concentration was measured. The plasma was fractionated in a midi-vial (8 mL, PerkinElmer Inc.), 6 mL of scintillation cocktail (Ultima Gold) was added, and the radioactivity concentration was measured. The radioactivity concentration was measured using a liquid scintillation counter (Tri-Carb 2500TR or 2700TR, PerkinElmer Inc.) (average value, n=3).

O=C(O)c1cn(C2CC2)c2cc(N3CCNCC3)c(F)cc2c1=O [CPFX, ciprofloxacin]
MIC [1]: 8 ng/mL (≈ 0.0241 µM)
development of resistant bacteria (in words) ([2]; S. aureus ATCC29213, 4 to 16 × MIC): developed
FREQUENCY OF DEVELOPMENT OF RESISTANT BACTERIA (AVERAGE OF TWO MEASURED VALUES) ([2]; S. aureus ATCC29213, 4 × MIC): 6.2 × 10^−9*
FREQUENCY OF DEVELOPMENT OF RESISTANT BACTERIA (AVERAGE OF TWO MEASURED VALUES) ([2]; S. aureus ATCC29213, 8 × MIC): 3.1 × 10^−9*
FREQUENCY OF DEVELOPMENT OF RESISTANT BACTERIA (AVERAGE OF TWO MEASURED VALUES) ([2]; S. aureus ATCC29213, 16 × MIC): <2.1 × 10^−9
development of resistant bacteria (in words) ([3]; E. coli ATCC25922, 4 to 16 × MIC): developed
FREQUENCY OF DEVELOPMENT OF RESISTANT BACTERIA (AVERAGE OF TWO MEASURED VALUES) ([3]; E. coli ATCC25922, 4 × MIC): 1.2 × 10^−8*
FREQUENCY OF DEVELOPMENT OF RESISTANT BACTERIA (AVERAGE OF TWO MEASURED VALUES) ([3]; E. coli ATCC25922, 8 × MIC): <1.9 × 10^−9
FREQUENCY OF DEVELOPMENT OF RESISTANT BACTERIA (AVERAGE OF TWO MEASURED VALUES) ([3]; E. coli ATCC25922, 16 × MIC): <1.9 × 10^−9
development of resistant bacteria (in words) ([4]; S. pneumoniae ATCC49619, 4 to 16 × MIC): developed
FREQUENCY OF DEVELOPMENT OF RESISTANT BACTERIA (AVERAGE OF TWO MEASURED VALUES) ([4]; S. pneumoniae ATCC49619, 4 × MIC): 1.1 × 10^−8*
FREQUENCY OF DEVELOPMENT OF RESISTANT BACTERIA (AVERAGE OF TWO MEASURED VALUES) ([4]; S. pneumoniae ATCC49619, 8 × MIC): <1.1 × 10^−8
FREQUENCY OF DEVELOPMENT OF RESISTANT BACTERIA (AVERAGE OF TWO MEASURED VALUES) ([4]; S. pneumoniae ATCC49619, 16 × MIC): <1.1 × 10^−8

COc1c(N2C[C@H](CNC3CC3)[C@H](F)C2)c(F)cc2c(=O)c(C(=O)O)cn(CCF)c12.Cl [Compound C, 7-[(3S,4S)-3-{(cyclopropylamino)methyl}-4-fluoropyrrolidine-1-yl]-6-fluoro-1-(2-fluoroethyl)-8-methoxy-4-oxo-1,4-dihydro[2-^14C1]quinoline-3-carboxylic acid hydrochloride]
RADIOACTIVITY CONCENTRATION IN TISSUE, LUNG ([5]; 1 hr): 10.3 μg eq./mL or g
RADIOACTIVITY CONCENTRATION IN TISSUE, LUNG ([5]; 6 hr): 2.44 μg eq./mL or g
RADIOACTIVITY CONCENTRATION IN TISSUE, LUNG ([5]; 24 hr): 0.0541 μg eq./mL or g
RADIOACTIVITY CONCENTRATION IN TISSUE, PLASMA ([5]; 1 hr): 2.79 μg eq./mL or g
RADIOACTIVITY CONCENTRATION IN TISSUE, PLASMA ([5]; 6 hr): 0.815 μg eq./mL or g
RADIOACTIVITY CONCENTRATION IN TISSUE, PLASMA ([5]; 24 hr): 0.0294 μg eq./mL or g
TISSUE DISTRIBUTION RATIO, LUNG ([5]; 1 hr): 3.7
TISSUE DISTRIBUTION RATIO, LUNG ([5]; 6 hr): 3.0
TISSUE DISTRIBUTION RATIO, LUNG ([5]; 24 hr): 1.9
